Measurements as given in patent US20160046618A1, “Cyclopropyl Fused Thiazin-2-Amine Compounds as Beta-Secretase Inhibitors and Methods of Use” (AMGEN INC., priority 2014, published 2016).
Like-named read-outs stand apart in the source and are kept apart here.

Legend:
human recombinant BACE2 = human recombinant BACE2 (Homo sapiens (Human), UniProt Q9Y5Z0); assay: In vitro enzymatic BACE2 FRET assay; assay type: biochemical; settings: read-out: IC50 IP (μM) BACE2 enzyme
Method: These recombinant proteins were further purified using Ni-NTA affinity chromatography (Qiagen). […] This assay is effectively started by the addition of FRET substrate (50 nM) and the combination is incubated for one hour. The FRET assay is terminated by addition of Tris buffer, which raises the pH to neutrality, and the fluorescence is determined. The FRET substrate is a peptide with commercially available fluorophore and quencher, on opposite sides of the BACE cleavage site. Proteolytic cleavage of the FRET substrate releases quenching of fluorescence (excitation 488 nm and emission 590 nm).

human recombinant BACE1 = human recombinant BACE1 (Homo sapiens (Human), UniProt P56817); assay: In vitro enzymatic BACE1 FRET assay; assay type: biochemical; settings: read-out: IC50 IP (μM) BACE1 enzyme
human recombinant BACE1, sequence (P56817 46-501): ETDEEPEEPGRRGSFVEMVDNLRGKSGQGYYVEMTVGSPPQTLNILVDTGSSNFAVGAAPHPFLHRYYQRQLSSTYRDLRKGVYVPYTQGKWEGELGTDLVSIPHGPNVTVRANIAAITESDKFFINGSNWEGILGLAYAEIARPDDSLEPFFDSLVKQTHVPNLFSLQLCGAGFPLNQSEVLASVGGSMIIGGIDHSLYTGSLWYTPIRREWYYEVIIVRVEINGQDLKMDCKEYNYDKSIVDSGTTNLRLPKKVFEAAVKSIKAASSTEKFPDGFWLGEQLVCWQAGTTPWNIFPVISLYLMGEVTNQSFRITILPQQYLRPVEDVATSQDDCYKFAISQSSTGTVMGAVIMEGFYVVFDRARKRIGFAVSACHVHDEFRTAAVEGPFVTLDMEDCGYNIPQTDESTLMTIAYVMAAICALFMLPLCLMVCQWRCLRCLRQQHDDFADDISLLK
Method in brief: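 Protease purified by Ni-NTA chromatography; start with FRET substrate (50 nM); incubate 1 h; quench with Tris to neutral pH; read fluorescence ex 488 / em 590 nm.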

[1] = test system: Aβ40 in conditioned medium of cells stably expressing Amyloid Precursor Protein (APP); assay: In vitro BACE-1 cell-based assay (Aβ40 sandwich ELISA); settings: read-out: IC50 IP (μM) BACE1 cell
Method in brief: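 APP-expressing cells treated 24 h at 37 °C with compound in 10-point dose response (top 100 μM or 10 μM, 0.1% DMSO final). Secreted Aβ40 in conditioned medium quantified by sandwich ELISA (pAb40 capture, biotinylated 6E10 detection, time-resolved europium fluorescence); IC50 from percent inhibition versus concentration.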

Recombinant Cat D = Recombinant Cat D (Homo sapiens (Human), UniProt P07339); assay: In vitro enzymatic Cathepsin D (Cat D) FRET assay; assay type: biochemical; settings: read-out: IC50 IP (μM) CatD
Recombinant Cat D, sequence (P07339 65-412): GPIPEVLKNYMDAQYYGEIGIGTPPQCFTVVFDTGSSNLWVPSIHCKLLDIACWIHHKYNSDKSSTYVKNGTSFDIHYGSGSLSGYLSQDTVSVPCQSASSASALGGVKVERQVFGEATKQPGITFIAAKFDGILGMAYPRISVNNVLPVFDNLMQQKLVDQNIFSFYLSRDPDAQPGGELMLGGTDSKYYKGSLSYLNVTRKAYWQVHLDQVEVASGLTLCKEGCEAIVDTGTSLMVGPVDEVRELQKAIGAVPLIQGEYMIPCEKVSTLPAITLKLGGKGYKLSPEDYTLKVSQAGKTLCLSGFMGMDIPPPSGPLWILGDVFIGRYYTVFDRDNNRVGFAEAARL
Method in brief: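 Cleavage of a 20 nM fluorophore/quencher peptide by CHO-expressed recombinant Cat D proceeded for one hour at pH 3.5 (0.05 M citrate, 5 mM CHAPS, 10% DMSO final). Tris addition neutralized the pH to end the reaction. Fluorescence was then measured (ex 500 nm/em 580 nm).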

human recombinant BACE2, sequence (Q9Y5Z0 63-518): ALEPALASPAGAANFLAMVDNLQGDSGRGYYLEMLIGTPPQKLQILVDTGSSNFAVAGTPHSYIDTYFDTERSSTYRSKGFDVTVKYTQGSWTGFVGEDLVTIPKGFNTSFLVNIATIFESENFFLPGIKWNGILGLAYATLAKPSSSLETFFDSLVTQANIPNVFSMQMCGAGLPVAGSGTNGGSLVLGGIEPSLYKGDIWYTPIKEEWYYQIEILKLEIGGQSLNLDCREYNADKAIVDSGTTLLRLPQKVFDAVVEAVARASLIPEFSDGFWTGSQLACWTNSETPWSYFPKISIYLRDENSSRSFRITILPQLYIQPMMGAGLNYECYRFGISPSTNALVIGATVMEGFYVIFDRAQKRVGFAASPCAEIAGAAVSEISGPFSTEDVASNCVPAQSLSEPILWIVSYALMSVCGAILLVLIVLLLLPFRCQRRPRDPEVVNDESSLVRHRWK

| IC50 (human recombinant BACE2) [µM] | IC50 (human recombinant BACE1) [µM] | IC50 [1] [µM] | IC50 (Recombinant Cat D) [µM] | IC50 (human recombinant BACE2; BACE2 FRET enzyme assay) [µM] | IC50 (human recombinant BACE1; BACE1 FRET enzyme assay) [µM] | IC50 ([1]; BACE1 cell-based assay) [µM] | IC50 (Recombinant Cat D; Cathepsin D FRET enzyme assay) [µM] | Compound |
| --- | --- | --- | --- | --- | --- | --- | --- | --- |
| < 0.00203 | 0.000176 | 0.0498 | 458 | – | – | – | – | NC1=N[C@](CF)(c2cc(NC(=O)c3ccc(Cl)cn3)ccc2F)[C@@H]2C[C@]2(/C=C/C(=O)O)S1 [Example 757, (E)-3-((1R,5S,6S)-3-amino-5-(5-(5-chloropicolinamido)-2-fluorophenyl)-5-(fluoromethyl)-2-thia-4-azabicyclo[4.1.0]hept-3-en-1-yl)acrylic acid] |
| 0.0633 | 0.00129 | 0.00508 | 162 | – | – | – | – | C[C@H](Oc1cnc2c(Nc3cc(F)c(F)c([C@@]4(C)N=C(N)S[C@@]5(C(=O)N6CCCC6)C[C@H]54)c3)nccc2n1)c1ncco1 [Example 938, N-(3-((1S,5S,6S)-3-amino-5-methyl-1-(1-pyrrolidinylcarbonyl)-2-thia-4-azabicyclo[4.1.0]hept-3-en-5-yl)-4,5-difluorophenyl)-2-((1S)-1-(1,3-oxazol-2-yl)ethoxy)pyrido[3,4-b]pyrazin-5-amine] |
| 0.224 | 0.00115 | 0.00826 | 569 | – | – | – | – | CNC(=O)[C@]12C[C@H]1[C@@](C)(c1cc(NC(=O)c3ccc(OCC(F)(F)F)cn3)cc(F)c1F)N=C(N)S2 [Example 700, (1S,5S,6S)-3-amino-5-(2,3-difluoro-5-(((5-(2,2,2-trifluoroethoxy)-2-pyridinyl)carbonyl)amino)phenyl)-N,5-dimethyl-2-thia-4-azabicyclo[4.1.0]hept-3-ene-1-carboxamide] |
| 0.00604 | 0.000201 | 0.000644 | 1080 | – | – | – | – | CC#CCOc1cnc2c(Nc3cc(F)c(F)c([C@@]4(C)N=C(N)S[C@@]5(C(N)=O)C[C@H]54)c3)nccc2n1 [Example 920, (1S,5S,6S)-3-amino-5-(5-((2-(2-butyn-1-yloxy)pyrido[3,4-b]pyrazin-5-yl)amino)-2,3-difluorophenyl)-5-methyl-2-thia-4-azabicyclo[4.1.0]hept-3-ene-1-carboxamide] |
| – | – | – | – | 0.0251 | 0.00913 | 0.00851 | > 400 | N#Cc1cnc2c(Nc3ccc(F)c([C@@]4(CF)N=C(N)S[C@@]5(CO)C[C@H]54)c3)ncnc2c1 [Example 80, 4-((3-((1S,5S,6S)-3-amino-5-(fluoromethyl)-1-(hydroxymethyl)-2-thia-4-azabicyclo[4.1.0]hept-3-en-5-yl)-4-fluorophenyl)amino)pyrido[3,2-d]pyrimidine-7-carbonitrile] |
| < 0.00203 | 0.000794 | 0.00152 | 364 | – | – | – | – | CN(C)C(=O)/C=C/[C@]12C[C@H]1[C@@](CF)(c1cc(NC(=O)c3ccc(Cl)cn3)ccc1F)N=C(N)S2 [Example 761, N-(3-((1R,5S,6S)-3-amino-1-((E)-3-(dimethylamino)-3-oxoprop-1-en-1-yl)-5-(fluoromethyl)-2-thia-4-azabicyclo[4.1.0]hept-3-en-5-yl)-4-fluorophenyl)-5-chloropicolinamide] |
| 0.345 | 0.033 | 0.035 | > 400 | – | – | – | – | C=C[C@@H](C)Oc1cnc(C(=O)Nc2ccc(F)c([C@@]3(C)N=C(N)S[C@@]4(COC)C[C@H]43)c2)cn1 (mixture of isomers) [Example 1051, N-(3-((1S,5S,6S)-3-amino-1-(methoxymethyl)-5-methyl-2-thia-4-azabicyclo[4.1.0]hept-3-en-5-yl)-4-fluorophenyl)-5-(((1R)-1-methyl-2-propen-1-yl)oxy)-2-pyrazinecarboxamide, N-(3-((1S,5S,6S)-3-amino-1-(methoxymethyl)-5-methyl-2-thia-4-azabicyclo[4.1.0]hept-3-en-5-yl)-4-fluorophenyl)-5-(((1S)-1-methyl-2-propen-1-yl)oxy)-2-pyrazinecarboxamide] |
| 0.0497 | 0.00233 | 0.0603 | 915 | – | – | – | – | C#CCOc1cnc2c(Nc3cc(F)c(F)c([C@@]4(C)N=C(N)S[C@@]5(COC)C[C@H]54)c3)ncc(F)c2c1 [Example 951, N-(3-((1S,5S,6S)-3-amino-1-(methoxymethyl)-5-methyl-2-thia-4-azabicyclo[4.1.0]hept-3-en-5-yl)-4,5-difluorophenyl)-5-fluoro-3-(2-propyn-1-yloxy)-1,7-naphthyridin-8-amine] |
| 0.0192 | 0.000544 | 0.00151 | 260 | – | – | – | – | C#CCOc1cnc2c(Nc3cnc(F)c([C@@]4(C)N=C(N)S[C@@]5(C(F)F)C[C@@H]45)c3)nccc2n1 [Example 653, N-(5-((1S,5S,6S)-3-amino-1-(difluoromethyl)-5-methyl-2-thia-4-azabicyclo[4.1.0]hept-3-en-5-yl)-6-fluoro-3-pyridinyl)-2-(2-propyn-1-yloxy)pyrido[3,4-b]pyrazin-5-amine] |
| 0.0122 | 0.00127 | 0.0161 | 485 | – | – | – | – | C#CCOc1cnc2c(Nc3ccc(F)c([C@@]4(CF)N=C(N)S[C@@]5(c6ocnc6C)C[C@@H]45)c3)ncnc2c1 [Example 788, N-(3-((1S,5S,6S)-3-amino-5-(fluoromethyl)-1-(4-methyl-1,3-oxazol-5-yl)-2-thia-4-azabicyclo[4.1.0]hept-3-en-5-yl)-4-fluorophenyl)-7-(2-propyn-1-yloxy)pyrido[3,2-d]pyrimidin-4-amine] |
| 0.765 | 0.0317 | 1.07 | 151 | – | – | – | – | COC[C@]12C[C@H]1[C@@](C)(c1cc(Nc3nccc4cc(OCc5nc(Br)cs5)cnc34)cc(F)c1F)N=C(N)S2 [Example 736, N-(3-((1S,5S,6S)-3-amino-1-(methoxymethyl)-5-methyl-2-thia-4-azabicyclo[4.1.0]hept-3-en-5-yl)-4,5-difluorophenyl)-3-((4-bromo-1,3-thiazol-2-yl)methoxy)-1,7-naphthyridin-8-amine] |
| < 0.00203 | 0.00112 | 0.0102 | 621 | – | – | – | – | NC1=N[C@](CF)(c2cc(NC(=O)c3ccc(Cl)cn3)ccc2F)[C@@H]2C[C@]2(c2cnco2)S1 [Example 785, N-(3-((1S,5S,6S)-3-amino-5-(fluoromethyl)-1-(1,3-oxazol-5-yl)-2-thia-4-azabicyclo[4.1.0]hept-3-en-5-yl)-4-fluorophenyl)-5-chloro-2-pyridinecarboxamide] |
| 0.333 | 0.0085 | 0.021 | > 400 | – | – | – | – | COC[C@H](C)Oc1cnc(C(=O)Nc2ccc(F)c([C@@]3(C)N=C(N)S[C@@]4(COC)C[C@H]43)c2)cn1 [Example 970, N-(3-((1S,5S,6S)-3-amino-1-(methoxymethyl)-5-methyl-2-thia-4-azabicyclo[4.1.0]hept-3-en-5-yl)-4-fluorophenyl)-5-((1S)-2-methoxy-1-methylethoxy)-2-pyrazinecarboxamide] |
| 0.346 | 0.0678 | 0.0156 | 2520 | – | – | – | – | C#CCOc1cnc2c(Nc3cc(C(=O)OC)c(F)c([C@@]4(C)N=C(N)S[C@@]5(CO)C[C@H]54)c3)nccc2n1 [Example 857, methyl 3-((1S,5S,6S)-3-amino-1-(hydroxymethyl)-5-methyl-2-thia-4-azabicyclo[4.1.0]hept-3-en-5-yl)-2-fluoro-5-((2-(prop-2-yn-1-yloxy)pyrido[3,4-b]pyrazin-5-yl)amino)benzoate] |
